We go through six compounds from ChEMBL document CHEMBL1201862, “PubChem BioAssay data set” (2004).

As a reminder, the AC50 is the concentration giving half of the maximal activity seen. One may read the IC50 as the concentration that inhibits the measured activity by half. A word on the CC50: it is the concentration that lowers cell viability or growth by half.

Where a name gives a salt, the structure may show the parent alone. Activity calls are given as the source filed them.

Data set [1] is described as follows: A549 cell cytotoxicity, dose response, cytotoxicity control, 24 h, CellTiter-Glo luminescence, cherry-picks (AID 1053115). It is filed as functional, cell-based. As to conditions: A549, 24 h. On the technique in general: In ATP-based viability assays light output follows the ATP content of the culture.
The nature of data set [2]: A549 cell cytotoxicity, dose response, CellTiter-Glo luminescence, dry powder, set 17 (AID 1117284). Format: functional, cell-based.
Data set [3] can be described thus: HEK293T cytotoxicity, dose response, cytotoxicity control for miR-122 modulator project, cell-based, inhibitor set, cherry-pick, set 2 (AID 720697). It is filed as functional.
Data set [4] deals with Paired box protein Pax-8 (Homo sapiens, UniProt Q06710). Description: inhibitors of PAX8-driven TPO luciferase reporter, dose response, RMG-I cells, cherry-pick (AID 687027).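 Further: luciferase reporter driven by Pax8 target thyroperoxidase promoter measured by SteadyGlo luminescence.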 Format: functional, cell-based.
Sequence of Paired box protein Pax-8 (Q06710 whole entry): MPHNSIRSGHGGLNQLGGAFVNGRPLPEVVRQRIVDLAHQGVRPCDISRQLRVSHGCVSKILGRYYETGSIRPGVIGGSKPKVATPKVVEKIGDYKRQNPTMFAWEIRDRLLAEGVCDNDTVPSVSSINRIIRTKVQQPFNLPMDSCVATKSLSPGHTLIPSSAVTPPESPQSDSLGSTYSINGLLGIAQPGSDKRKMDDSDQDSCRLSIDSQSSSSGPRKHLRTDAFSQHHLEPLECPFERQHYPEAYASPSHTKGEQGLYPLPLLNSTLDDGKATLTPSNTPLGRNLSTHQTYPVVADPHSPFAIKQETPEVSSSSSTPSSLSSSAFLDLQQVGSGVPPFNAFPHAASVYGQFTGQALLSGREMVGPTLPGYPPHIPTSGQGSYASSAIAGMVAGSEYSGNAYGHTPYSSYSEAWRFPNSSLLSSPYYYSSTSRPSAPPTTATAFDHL
Data set [5] can be described thus: HEK293T cytotoxicity, dose response, cytotoxicity control for miR-122 modulator project, cell-based, activator set, cherry-pick (AID 720690).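 Further: HEK293T human cells scored for general mammalian cytotoxicity.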 Format: functional.
The nature of data set [6]: cytotoxicity in OVCAR8 ovarian cancer cells, dose response, PAX8 project, cell-based, plate reader, dry powder samples (AID 743197). It is filed as functional. As to conditions: OVCAR-8.
The nature of data set [7]: non-specific cell cytotoxicity, dose response, cytotoxicity control for PAX8 inhibitor project, plate reader, dry powder samples (AID 743021). Format: functional, cell-based.
Data set [8] can be described thus: SNU-C1 cell viability reduction, dose response, CellTiter-Glo luminescence (AID 1117323). Format: functional, cell-based.
The nature of data set [9]: cytotoxicity toward Colo320 cells – cell-based, CellTiter-Glo luminescence, IC50, dose response (AID 1117334). As to conditions: COLO 320. It is filed as functional.
A short description of data set [10]: Concentration-dependent survival of SW480 colon cancer line, luminescence detection with CellTiter-Glo, half-maximal inhibitory concentration (AID 1117338). Format: functional.
Data set [11] is described as follows: RKO cell viability reduction, dose response, CellTiter-Glo luminescence (AID 1117322). It is filed as functional.
A short description of data set [12]: cytotoxicity toward HT-29 cells – cell-based, CellTiter-Glo luminescence, IC50, dose response (AID 1117330). Format: functional.
Data set [13] can be described thus: cytotoxicity toward HCT116 cells – cell-based, CellTiter-Glo luminescence, IC50, dose response (AID 1117332). It is filed as functional. To be noted: HCT-116.
Data set [14] in a line: CellTiter-Glo luminescent dose response of DLD-1 viability loss (AID 1117352). It is filed as functional.
The nature of data set [15]: HCT116 cell viability decrease, GSK3B pretreatment – CellTiter-Glo, IC50, dose response (AID 1117339). It is filed as functional. To be noted: HCT-116.
A short description of data set [16]: Artemis endonuclease inhibitor potency, dose response, biochemical, fluorescence intensity (AID 720701).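 Further: Artemis endonuclease enzyme.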 Format: functional.
A short description of data set [17]: HEK293 cell cytotoxicity, dose response, cytotoxicity control, ATP luminescence, dry powder, set 3 (AID 743131). It is filed as functional, cell-based.
For data set [18], the system named is Vero. Put plainly: cells. Format: functional, cell-based. To be noted: Chlorocebus sabaeus.
Data set [19] in a line: HEp-2 cell cytotoxicity, dose response, cytotoxicity control for RSV inhibitor project, HTS (AID 2410). Format: functional. As to conditions: human respiratory syncytial virus.
Data set [20] can be described thus: Vero 76 cell cytotoxicity, dose response, cytotoxicity control, set 2 (AID 602240). It is filed as functional. To be noted: Venezuelan equine encephalitis virus.
Data set [21] deals with Vero. Put plainly: cells. It is filed as functional. To be noted: Chlorocebus sabaeus.
Data set [22] in a line: A Cell-Based Confirmatory Screen for Compounds that Inhibit VEEV, TC-83 (2). It is filed as functional.
The target in data set [23] is T1, Cytochrome P450 1A2 (Homo sapiens, UniProt P05177).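 Further: PubChem cytochrome P450 panel assay, CYP1A2 panel member.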
T1 sequence (P05177 whole entry): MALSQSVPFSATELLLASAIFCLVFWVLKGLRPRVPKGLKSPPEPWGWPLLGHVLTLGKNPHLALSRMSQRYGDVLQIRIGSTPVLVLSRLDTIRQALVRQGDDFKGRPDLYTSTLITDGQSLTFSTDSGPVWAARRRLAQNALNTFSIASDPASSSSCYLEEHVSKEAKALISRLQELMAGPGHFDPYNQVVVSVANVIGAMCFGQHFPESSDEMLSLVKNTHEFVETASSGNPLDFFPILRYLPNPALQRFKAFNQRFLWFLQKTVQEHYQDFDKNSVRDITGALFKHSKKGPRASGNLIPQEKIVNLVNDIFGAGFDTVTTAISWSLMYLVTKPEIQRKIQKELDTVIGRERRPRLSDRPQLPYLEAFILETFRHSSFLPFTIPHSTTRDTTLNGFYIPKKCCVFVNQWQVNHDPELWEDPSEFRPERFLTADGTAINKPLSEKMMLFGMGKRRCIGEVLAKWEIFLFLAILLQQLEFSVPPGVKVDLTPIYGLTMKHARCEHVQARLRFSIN

Data set [24] is described as follows: cells.
A short description of data set [25]: A Cell-Based Counter Screen testing Compounds that Inhibit VEEV TC-83, in strain KU V3526. Format: functional. A general note: The purpose of a counterscreen is to sort out artefacts and off-target activity.
Data set [26] addresses Cytochrome P450 3A4 (Homo sapiens, UniProt P08684).
Data set [27] can be described thus: PAX5 activity inhibitors, dose response, selectivity assay for PAX8 inhibitor project, cell-based, plate reader, dry powder samples (AID 743047).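 Further: HEK293 cells carrying a Pax5 driven CD19 promoter luciferase reporter; potency of inhibitors that lower reporter luminescence.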 It is filed as functional.
Data set [28] in a line: PAX2 cell-based inhibition, dose response, selectivity assay for PAX8 inhibitor project, plate reader, dry powder samples (AID 743048).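 Further: HEK293 cells carrying a WT1 promoter luciferase reporter driven by expressed Pax2; potency is for inhibition of Pax2 driven reporter signal.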 Format: functional.
The nature of data set [29]: cytotoxicity in OV-90 ovarian cancer cells, dose response, PAX8 inhibitor project, cell-based, plate reader, dry powder, SA8 (AID 743149). Format: functional.
Data set [30] in a line: cytotoxicity dependent on PAX8, dose response, cell-based, plate reader, dry powder (AID 743049). Format: functional.

Sequence of Cytochrome P450 3A4 (P08684 whole entry): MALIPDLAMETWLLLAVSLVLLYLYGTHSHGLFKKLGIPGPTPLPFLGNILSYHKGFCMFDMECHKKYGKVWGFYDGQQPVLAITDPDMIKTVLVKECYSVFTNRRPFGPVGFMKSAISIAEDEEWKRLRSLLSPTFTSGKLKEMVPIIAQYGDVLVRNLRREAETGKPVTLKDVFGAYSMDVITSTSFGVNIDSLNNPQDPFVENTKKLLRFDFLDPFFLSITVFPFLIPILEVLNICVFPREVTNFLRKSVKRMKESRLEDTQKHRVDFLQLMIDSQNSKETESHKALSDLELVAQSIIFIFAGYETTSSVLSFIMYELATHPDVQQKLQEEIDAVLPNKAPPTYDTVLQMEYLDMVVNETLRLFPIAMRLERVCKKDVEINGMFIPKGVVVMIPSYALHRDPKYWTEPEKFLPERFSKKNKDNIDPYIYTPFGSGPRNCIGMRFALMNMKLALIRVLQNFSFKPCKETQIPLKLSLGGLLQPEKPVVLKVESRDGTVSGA

As to `C[C@H](O)C#Cc1ccc2c(c1)O[C@@H](CN(C)Cc1ccc(-c3ccccc3)cc1)[C@@H](C)CN([C@H](C)CO)S2(=O)=O`, the AC50 in data set [1] is 48.6 µM (active); in data set [2] it was > 52 µM (inactive); in data set [3], 21.6 µM (active); in data set [4], 4.57 µM (active); in [5], 22.8 µM (active); in data set [6], > 70 µM (inactive). Further, the AC50 in data set [7] was 46.3 µM (active).
For the compound `CNS(=O)(=O)CCc1ccc2[nH]cc(C3CCN(C)CC3)c2c1` [NARATRIPTAN HYDROCHLORIDE], the IC50 in [8], in [9], in [10], in [11], in data set [12] and in [13] was > 20 µM (inactive) throughout. The IC50 in data set [14] was > 20 µM (inactive); in data set [15] it was 12.1 µM (inactive).
For the compound `COc1ccc(/C=N/NC(=O)c2nc(-c3ccccc3)cc(-c3ccccc3)n2)cc1`, the IC50 in data set [16] was > 20 µM (inactive).
As for `Cc1ccccc1OCCn1c(S)nc2ccccc21`, the AC50 in data set [17] is 0.344 µM (active).
For `CCOC(=O)c1ccc(Nc2nc(=O)c3cccnc3s2)cc1`, the concentration for half-maximal inhibition (IC50) in data set [18] was 6.32 µM (active); in data set [22], 10.8 µM (active); in data set [24], 9.32 µM (active); in [25] it was 7.07 µM (active). Besides, the half-maximal cytotoxic concentration (CC50) in data set [19] was 22.4 µM (active); in data set [20], > 50 µM (active); in data set [21], > 25 µM (active). Further, the half-maximal activity concentration (AC50) was 14.1 µM (inconclusive) in [23] and “inconclusive” in data set [26].
On to `N#C[C@@H]1[C@@H](c2ccc(-c3ccccc3F)cc2)[C@@H](CO)N1C(=O)C1CCC1`, for which the AC50 in data set [27] was 60.8 µM (active); in [4] it was 8.88 µM (active); in data set [28], > 70 µM (inactive); in data set [29], > 70 µM (inactive); in data set [30] it was > 70 µM (inactive).
